Assays:
[1] = tested on: harmful plants such as Stellaria media, Lolium multiflorum, Amaranthus retroflexus, Sinapis alba, Avena sativa and Setaria viridis; test: Pre-emergence effect on weeds (greenhouse pot test, visual scoring); assay type: in vivo; details: applied pre-emergence at an application rate of 1 kg or less of active substance per hectare; scored visually after 3 to 4 weeks vs untreated controls;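 further: scored as plant damage or reduced emergence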
From the text: 1 Pre-emergence Effect on Weeds
Seeds or rhizome pieces of monocotyledonous and dicotyledonous weeds plants are placed in sandy loam soil in plastic pots and covered with soil. The compounds according to the invention which are formulated in the form of wettable powders or emulsion concentrates are then applied to the surface of the soil cover in the form of an aqueous suspension or emulsion at an application rate of 600 to 800 l of water/ha (converted), in various dosages.

[2] = tested on: harmful plants such as Sinapis alba, Echinochloa crus- galli, Lolium multiflorum, Stellaria media, Cyperus iria, Amaranthus retroflexus, Setaria viridis and …; test: Post-emergence effect on weeds (greenhouse pot test, visual scoring); assay type: in vivo; details: applied post-emergence (three-leaf stage) at an application rate of 1 kg and less of active substance per hectare; scored visually after about 3 to 4 weeks vs untreated controls
Protocol: 2. Post-emergence Effect on Weeds
Seeds or rhizome pieces of monocotyledonous and dicotyledonous weeds are placed in sandy loam soil in plastic pots, covered with soil and grown in the greenhouse under good growth conditions. Three weeks after sowing, the test plants are treated in the three-leaf stage. The compounds according to the invention which are formulated as wettable powders or as emulsion concentrates are sprayed in various dosages on the green parts of the plants at an application rate of 600 to 800 l of water/ha (converted). After the test plants have remained in the greenhouse for about 3 to 4 weeks under ideal growth conditions, the effect of the preparations is scored visually by comparison with untreated controls. The agents according to the invention also have a good herbicidal post-emergence action against a broad range of economically important grass weeds and dicotyledonous weeds.

| Compound | herbicidal action against harmful plants, pre-emergence [1] | herbicidal action against harmful plants, post-emergence [2] |
| --- | --- | --- |
| Cc1nc(N)nc(NC(CCc2ccccc2)C2CCC2)n1 (stereo not drawn) [Example 4-3] | very good herbicidal action | very good herbicidal action |
| CC(C)c1nc(N)nc(NC(CCc2cccc(Cl)c2)C2CCC2)n1 (stereo not drawn) [Example 4-10] | very good herbicidal action | very good herbicidal action |
| CC(C)(F)c1nc(N)nc(NC(CCc2cccc(Cl)c2)C2CCC2)n1 (stereo not drawn) [Example 4-11] | very good herbicidal action | very good herbicidal action |
| Cc1ccccc1CCC(Nc1nc(N)nc(C(C)(C)F)n1)C1CCC1 (stereo not drawn) [Example 4-25] | very good herbicidal action | very good herbicidal action |
| Cc1ccccc1CCC(Nc1nc(N)nc(C(C)C)n1)C1CCC1 (stereo not drawn) [Example 4-26] | very good herbicidal action | very good herbicidal action |
| CC(C)c1nc(N)nc(NC(CCc2cccc(F)c2)C2CCC2)n1 (stereo not drawn) [Example 4-27] | very good herbicidal action | very good herbicidal action |
| CC(C)(F)c1nc(N)nc(NC(CCc2cccc(F)c2)C2CCC2)n1 (stereo not drawn) [Example 4-28] | very good herbicidal action | very good herbicidal action |
| Cc1cccc(CCC(Nc2nc(C)nc(N)n2)C2CCC2)c1 (stereo not drawn) [Example 4-29, 2-Amino-6-methyl-4-[3-(3-methylphenyl)-1-cyclobutyl-1-propylamino]1,3,5-triazine] | very good herbicidal action | very good herbicidal action |
| CC(C)c1nc(N)nc(NC(CCc2ccccc2)C2CCCC2)n1 (stereo not drawn) [Example 8-1] | very good herbicidal action | very good herbicidal action |
| CC(C)(F)c1nc(N)nc(NC(CCc2ccccc2)C2CCCC2)n1 (stereo not drawn) [Example 8-2] | very good herbicidal action | very good herbicidal action |
| CC(C)Cc1nc(N)nc(NC(CCc2ccccc2)C2CC2)n1 (stereo not drawn) [Example 9-1] | very good herbicidal action | very good herbicidal action |
| CCc1nc(N)nc(NC(CCc2ccccc2)C2CC2)n1 (stereo not drawn) [Example 9-2] | very good herbicidal action | very good herbicidal action |
| Cc1nc(N)nc(NC(CCc2ccccc2)C2CC2)n1 (stereo not drawn) [Example 9-3] | very good herbicidal action | very good herbicidal action |
| CC(C)(F)c1nc(N)nc(NC(CCc2cccc(C(F)(F)F)c2)C2CC2)n1 (stereo not drawn) [Example 9-6] | very good herbicidal action | very good herbicidal action |
| CC(C)(F)c1nc(N)nc(NC(CCc2cccc(Cl)c2)C2CC2)n1 (stereo not drawn) [Example 9-8] | very good herbicidal action | very good herbicidal action |
| CC(C)c1nc(N)nc(NC(CCc2cccc(C(F)(F)F)c2)C2CC2)n1 (stereo not drawn) [Example 9-11] | very good herbicidal action | very good herbicidal action |
| Cc1cccc(CCC(Nc2nc(N)nc(C(C)C)n2)C2CC2)c1 (stereo not drawn) [Example 9-12] | very good herbicidal action | very good herbicidal action |
| COc1cccc(CCC(Nc2nc(N)nc(C(C)C)n2)C2CC2)c1 (stereo not drawn) [Example 9-13] | very good herbicidal action | very good herbicidal action |
| COc1cccc(CCC(Nc2nc(N)nc(C(C)(C)F)n2)C2CC2)c1 (stereo not drawn) [Example 9-14] | very good herbicidal action | very good herbicidal action |
| Cc1cccc(CCC(Nc2nc(N)nc(CC(C)C)n2)C2CC2)c1 (stereo not drawn) [Example 9-15] | very good herbicidal action | very good herbicidal action |

| Compound | herbicidal action against harmful plants, pre-emergence [1] | herbicidal action against harmful plants, post-emergence [2] |
| --- | --- | --- |
| Cc1cccc(CCC(Nc2nc(N)nc(C(C)(C)F)n2)C2CC2)c1 (stereo not drawn) [Example 9-16] | very good herbicidal action | very good herbicidal action |
| Cc1cc(C)cc(CCC(Nc2nc(N)nc(C(C)(C)F)n2)C2CC2)c1 (stereo not drawn) [Example 9-17, 2-Amino-4-(1-fluoro-1-methylethyl)-6-[3-(3,5-dimethylphenyl)-1-cyclopropyl-1-propylamino]-1,3,5-triazine] | very good herbicidal action | very good herbicidal action |
| Cc1cc(C)cc(CCC(Nc2nc(N)nc(C(C)C)n2)C2CC2)c1 (stereo not drawn) [Example 9-18] | very good herbicidal action | very good herbicidal action |
| Nc1nc(NC(CCc2ccccc2)C2CC2)nc(-c2ccccc2)n1 (stereo not drawn) [Example 9-19] | very good herbicidal action | very good herbicidal action |
| CC(C)(F)c1nc(N)nc(NC(CCc2ccccc2)C2CC2(C)C)n1 (stereo not drawn) [Example 10-1] | very good herbicidal action | very good herbicidal action |
| CC(C)(F)c1nc(N)nc(NC(CCc2ccccc2)c2ccoc2)n1 (stereo not drawn) [Example 18-1] | very good herbicidal action | very good herbicidal action |
| CC(C)c1nc(N)nc(NC(CCc2ccccc2)c2ccoc2)n1 (stereo not drawn) [Example 18-2] | very good herbicidal action | very good herbicidal action |
| CC(C)(F)c1nc(N)nc(NC(CCc2ccccc2)c2ccccc2)n1 (stereo not drawn) [Example 18-3] | very good herbicidal action | very good herbicidal action |
| CC(C)c1nc(N)nc(NC(CCc2ccccc2)c2ccccc2)n1 (stereo not drawn) [Example 18-4] | very good herbicidal action | very good herbicidal action |
| CC(C)(F)c1nc(N)nc(NC(CCc2ccccc2)C2CCCO2)n1 (stereo not drawn) [Example 19-5] | very good herbicidal action | very good herbicidal action |
| CC(C)c1nc(N)nc(NC(CCc2ccccc2)C2CCCO2)n1 (stereo not drawn) [Example 19-6] | very good herbicidal action | very good herbicidal action |
| CC(C)(F)c1nc(N)nc(NC(CCc2ccccc2)C2CCOC2)n1 (stereo not drawn) [Example 20-1] | very good herbicidal action | very good herbicidal action |
| CC(C)c1nc(N)nc(NC(CCc2ccccc2)C2CCOC2)n1 (stereo not drawn) [Example 20-2] | very good herbicidal action | very good herbicidal action |
| CC(F)c1nc(N)nc(NC(CCCc2ccccc2)C2CC2)n1 (stereo not drawn) [Example 22-3] | very good herbicidal action | very good herbicidal action |
| Cc1nc(N)nc(NC(CCCc2ccccc2)C2CC2)n1 (stereo not drawn) [Example 22-8] | very good herbicidal action | very good herbicidal action |
| CCc1nc(N)nc(NC(CCCc2ccccc2)C2CC2)n1 (stereo not drawn) [Example 22-9] | very good herbicidal action | very good herbicidal action |
| CC(C)c1nc(N)nc(NC(CCCc2ccccc2)C2CC2)n1 (stereo not drawn) [Example 22-11] | very good herbicidal action | very good herbicidal action |
| CC(C)(F)c1nc(N)nc(NC(CCCc2ccccc2)C2CC2)n1 (stereo not drawn) [Example 22-12, 2-Amino-4-(1-fluoro-1-methylethyl)-6-(1-phenyl-4-cyclopropyl-4-butylamino)-1,3,5-triazine] | very good herbicidal action | very good herbicidal action |
| CC(C)(F)c1nc(N)nc(NC(CCCc2cccc(Cl)c2)C2CC2)n1 (stereo not drawn) [Example 22-18] | very good herbicidal action | very good herbicidal action |
